In brackets after ≈: the same amount, converted by molar mass. Peptide text beside a SMILES is read from it. * marks the point of attachment. NHPhenethyl = c1ccc(CCN*)cc1; NHBn = c1ccc(CN*)cc1
Key:
trypsin = trypsin (Bos taurus, UniProt P00760); assay: in vitro; conditions: bovine, isolated trypsin from bovine pancreas, pH 8.6
Protocol: Essentially salt-free trypsin from bovine pancreas, (T8802, 10000-15000 BAEE units/mg protein) was supplied by Sigma-Aldrich.
Each peptide was dissolved in a 0.1 M NH4HCO3 buffer (pH 6.5) to yield a final peptide concentration of 1 mg/ml. A trypsin solution was prepared by dissolving 1 mg of trypsin in 50 ml 0.1 M NH4HCO3 buffer (pH 8.2). For the stability determination, 250 μl freshly made trypsin solution and 250 μl peptide solution were incubated in 2 ml of 0.1 M NH4HCO3 buffer (pH 8.6) at 37° C. on a rocking table. Aliquots of 0.5 ml were sampled at different time intervals, diluted with 0.5 ml water:acetonitrile (60:40 v/v) containing 1% TFA and analysed by RP-HPLC as described above. Samples without trypsin addition taken at 0 h and after 20 h at 37° C. were used as negative controls. […] The plotted kinetic profiles were made on GraphPad Prism 4c.
The identity of the metabolites from the tryptic degradation was either determined by preparative trypsin degradation of the peptide, purification and structural determination by ESMS, or by chemical synthesis of authentic reference samples.

Str. pyogenes = assay: Minimal inhibitory concentration; type: cell-based
Protocol: (§1) A further compound was prepared according to the methods of the invention and Minimal Inhibitory Concentration (MIC) values obtained against a range of bacteria. • H-Arg-Tbt-Arg-NH(CH2)2 (2-Br-phenyl) Saponification of Boc-Arg-Tbt-Arg-OMe
(§2) Minimal inhibitory concentration (mg/l),

S. aureus = assay: Minimal inhibitory concentration; type: cell-based
Protocol: as §1, §2

MRSA = assay: Minimal inhibitory concentration; type: cell-based
Protocol: as §1, §2

E. coli = assay: Minimal inhibitory concentration; type: cell-based
Protocol: as §1, §2

Sequence of trypsin (P00760 24-246): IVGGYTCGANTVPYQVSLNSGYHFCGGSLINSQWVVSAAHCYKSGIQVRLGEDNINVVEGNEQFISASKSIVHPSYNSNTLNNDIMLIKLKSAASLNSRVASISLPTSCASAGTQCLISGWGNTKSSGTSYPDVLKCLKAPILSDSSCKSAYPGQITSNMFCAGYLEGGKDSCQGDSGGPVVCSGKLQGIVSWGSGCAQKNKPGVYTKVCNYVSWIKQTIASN

Structure (SMILES)	half-life at 0.1 mg/ml (trypsin) [h]	Minimal inhibitory concentration (Str. pyogenes) [µg/mL]	Minimal inhibitory concentration (S. aureus) [µg/mL]	Minimal inhibitory concentration (MRSA) [µg/mL]	Minimal inhibitory concentration (E. coli) [µg/mL]
N=C(N)NCCC[C@H](NC(=O)[C@H](Cc1c[nH]c2ccccc12)NC(=O)[C@@H](N)CCCNC(=N)N)C(=O)NCc1ccccc1 [E] (H-Arg-Trp-Arg-NHBn)	1				
N=C(N)NCCC[C@H](NC(=O)[C@H](Cc1c[nH]c2ccccc12)NC(=O)[C@@H](N)CCCNC(=N)N)C(=O)NCCc1ccccc1 [F] (H-Arg-Trp-Arg-NHPhenethyl)	7				
CC(C)(C)c1cc(C(C)(C)C)c2[nH]c(C(C)(C)C)c(C[C@H](NC(=O)[C@@H](N)CCCNC(=N)N)C(=O)N[C@@H](CCCNC(=N)N)C(=O)NCCc3ccccc3Br)c2c1 [—(CH2)2-(2-BrPh), H-Arg-Tbt-Arg-NH(CH2)2 (2-Br-phenyl)]		3 (≈ 3.46 µM)	3 (≈ 3.46 µM)	3 (≈ 3.46 µM)	6 (≈ 6.92 µM)

— patent US9212202B2, “Methods of peptide modification” (Lytix Biopharma AS, priority 2007, dated 2015)
